Experimental data as given in article PMC6110851, “An Optimized MicroPET Imaging Method for the Distribution and Synergies of Natural Products” (Frontiers in Pharmacology, 2018).

System: NF-κB
Experiment: NF-κB dual luciferase reporter assay in TNF-stimulated HEK 293 T cells
Format: cell-based
Settings: after decay of radioactivity, HEK 293T stimulated by TNF-α
Experimental: The separation process was repeated five times for use in the activity tests. […] After 48 h, radioactive elements had decayed, the residues were stored at 4°C for anti-inflammatory activity tests ([Dong et al., 2013]; [Qingxin et al., 2016]).
HEK 293 T cells were cultured in standard Dulbecco’s modified Eagle’s medium (DMEM; Hyclone) supplemented with 10% fetal bovine serum (FBS; Biological Industries). The cells were placed in 96-well plates at 37°C in an air-CO2 environment (95/5% v/v). Cells were grown to 80–90% confluence and incubated for 12 h in DMEM without FBS. Transfection (20 h) was performed according to the manufacturer’s instructions. HEK 293 T cells were pretreated with drugs 1 h prior to TNF-stimulation (5 ng/mL) for 6 h. Dex (10^-5mol/L) was used as a positive control for NF-κB inhibition. The NF-κB activity was assayed using dual luciferase reporter assay system (Promega) according to the manufacturer’s instructions ([Qingxin et al., 2016]). Antiinflammatory activity was calculated as the ratio of firefly luciferase activity to Renilla luciferase activity (internal control).

`CC1(C)[C@@H](O)CC[C@]2(C)[C@H]3C(=O)C=C4[C@@H]5C[C@@](C)(C(=O)NCCCC[18F])CC[C@]5(C)CC[C@@]4(C)[C@]3(C)CC[C@@H]12` [[^18F]-GA, [^18F]-Glycyrrhetinic acid] was tested, and the “inhibition of NF-κB activity” value (high concentration) was “significant inhibition of NF-κB activity”, the “anti-inflammatory activity (NF-κB reporter)” value (low concentration) was “weak anti-inflammatory activity” and the “inhibition of NF-κB activity” value (medium concentration) was “significant inhibition of NF-κB activity”.
